Test results from patent US7528140B2, “Substituted pyrrolo[3,2-d]pyrimidines as glycogen synthase kinase (GSK) inhibitors” (Teijin Limited, priority 2002, dated 2009).

The molecules below were run against recombinant human GSK-3β (Homo sapiens, UniProt P49841) (assay: Measurement of GSK-3 enzyme activity inhibition (32P phosphorylation of phospho-glycogen synthase peptide-2)). Conditions: 20 μM ATP, 20 minutes at room temperature, read-out: GSK-3 enzyme inhibiting activity (IC50).
Assay type: biochemical
Method: Measurement of GSK-3 Enzyme Activity Inhibition
After adding 25 μL of phospho-glycogen synthase peptide-2 substrate solution [6 μM phospho -glycogen synthase peptide-2, 20 μM ATP, 16 mM MOPS buffer (pH 7.0), 0.2 mM EDTA, 20 mM magnesium acetate, 0.1 μCi [γ-^32P]ATP (specific activity: approximately 110 TBq/mmol)]to 5 μL of the test compound using 5% dimethylsulfoxide as the solvent, reaction was initiated by further addition of 20 μL of a GSK-3β enzyme solution [10 mU recombinant human GSK-3β, 20 mM MOPS buffer (pH 7.0), 1 mM EDTA, 0.1% polyoxyethylene lauryl ether (23 Lauryl Ether; Brij 35), 5% glycerol, 0.1% β-mercaptoethanol]. After conducting the reaction for 20 minutes at room temperature, an equivalent volume of a 200 mM phosphoric acid solution was added to quench the reaction, and 90 μL of the reaction product was adsorbed onto a MultiScreen PH plate (Millipore) and rinsed with a 100 mM phosphoric acid solution. After drying the plate, 30 μL of Micro Scint-O (Packard BioScience) was added, and the cpm was measured with a scintillation counter to determine the inhibiting activity. Phospho GS Peptide2 is […]P)-Glu-Asp-Glu-Glu-Glu (SEQ ID NO:1).

recombinant human GSK-3β, sequence (P49841 whole entry): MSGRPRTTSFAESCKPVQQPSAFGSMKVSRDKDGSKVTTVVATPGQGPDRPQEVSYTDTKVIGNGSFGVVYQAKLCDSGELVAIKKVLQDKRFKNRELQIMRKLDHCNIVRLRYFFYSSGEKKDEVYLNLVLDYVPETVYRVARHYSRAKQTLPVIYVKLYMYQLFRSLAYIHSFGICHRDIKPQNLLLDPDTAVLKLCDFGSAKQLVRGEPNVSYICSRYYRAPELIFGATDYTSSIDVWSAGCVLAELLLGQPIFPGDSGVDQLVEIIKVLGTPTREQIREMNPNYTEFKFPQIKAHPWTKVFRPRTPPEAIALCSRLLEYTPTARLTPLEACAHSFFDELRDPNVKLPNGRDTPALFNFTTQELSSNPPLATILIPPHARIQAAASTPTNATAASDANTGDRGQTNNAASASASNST

SMILES	IC50
CN(C)c1c(C#N)c2nc[nH]c(=S)c2n1CCNC(=O)c1ccc(F)cc1 [6-1029, N-{2-[6-(dimethylamino)-7-cyano-4-thioxo(3-hydropyrrolo[3,2-d]pyrimidin-5-yl)]ethyl}(4-fluorophenyl)carboxamide]	0.03 to 0.1 µM
N#Cc1c(-c2cccc(C(=O)O)c2)[nH]c2c(=S)[nH]cnc12 [1-0687, 3-(7-cyano-4-thioxo-3-hydropyrrolo[4,5-d]pyrimidin-6-yl)benzoic acid]	1 to 10 µM
COc1ccccc1-c1[nH]c2c(=O)[nH]cnc2c1C#N [1-0038, 6-(2-methoxyphenyl)-4-oxo-3-hydropyrrolo[3,2-d]pyrimidine-7-carbonitrile]	1 to 10 µM
Cn1cccc1-c1c(C#N)c2nc[nH]c(=S)c2n1CCN [1-0459, 5-(2-aminoethyl)-6-(1-methylpyrrol-2-yl)-4-thioxo-3-hydropyrrolo[3,2-d]pyrimidine-7-carbonitrile]	1 to 10 µM
N#Cc1c(-c2ccccc2)n(CCCc2ccccc2)c2c(=O)[nH]cnc12 [1-0320]	1 to 10 µM
N#Cc1c(-c2ccccc2N)[nH]c2c(=S)[nH]cnc12 [1-0753, 6-(2-aminophenyl)-4-thioxo-3-hydropyrrolo[3,2-d]pyrimidine-7-carbonitrile]	1 to 10 µM
Cc1c(C#N)c2nc[nH]c(=S)c2n1CCCc1ccccc1 [1-0323]	1 to 10 µM
CC(C)CCn1c(-c2ccccc2)c(C#N)c2nc[nH]c(=O)c21 [1-0113]	1 to 10 µM
N#Cc1c(-c2ccccc2Br)[nH]c2c(=S)[nH]cnc12 [1-0751, 6-(2-bromophenyl)-4-thioxo-3-hydropyrrolo[3,2-d]pyrimidine-7-carbonitrile]	0.03 to 0.1 µM
CC(C)(C)OC(=O)NCCCn1c(-c2ccccc2)c(C#N)c2nc[nH]c(=O)c21 [2-0208]	1 to 10 µM
N#Cc1c(C2CC2)n(CCC(=O)O)c2c(=S)[nH]cnc12 [4-0092, 3-(7-cyano-6-cyclopropyl-4-thioxo-3-hydropyrrolo[3,2-d]pyrimidin-5-yl)propanoic acid]	0.01 to 0.03 µM
CSCCCn1c(-c2ccccc2)c(C#N)c2nc[nH]c(=O)c21 [1-0263]	1 to 10 µM
N#Cc1c(-c2ccco2)n(CCC(=O)N2CCCCC2)c2c(=S)[nH]cnc12 [3-0156]	< 0.01 µM
CC(C)OCCCn1c(-c2cc(O)cc(O)c2)c(C#N)c2nc[nH]c(=S)c21 [1-0529, 6-(3,5-dihydroxyphenyl)-5-[3-(methylethoxy)propyl]-4-thioxo-3-hydropyrrolo[3,2-d]pyrimidine-7-carbonitrile]	0.01 to 0.03 µM
N#Cc1c(N2CCCC2)n(CCNC(=O)c2ccc(F)cc2)c2c(=S)[nH]cnc12 [6-1031, N-[2-(7-cyano-6-pyrrolidinyl-4-thioxo(3-hydropyrrolo[3,2-d]pyrimidin-5-yl))ethyl](4-fluorophenyl)carboxamide]	0.03 to 0.1 µM

More lines, now with the values ahead:

IC50	SMILES
1 to 10 µM	N#Cc1c(-c2ccccc2)n(CCc2ccccc2)c2c(=S)[nH]cnc12 [1-0312]
1 to 10 µM	N#Cc1c(-c2ccccc2)n(CCOc2ccccc2)c2c(=S)[nH]cnc12 [1-0372]
1 to 10 µM	N#Cc1c(-c2ccccc2)n(CCNCc2ccccc2)c2c(=S)[nH]cnc12 [2-1775, 6-phenyl-5-{2-[benzylamino]ethyl}-4-thioxo-3-hydropyrrolo[3,2-d]pyrimidine-7-carbonitrile]
0.03 to 0.1 µM	Cc1ccc(N)c(C(=O)NCCn2c(-c3ccccc3)c(C#N)c3nc[nH]c(=S)c32)c1 [2-0635, (2-amino-5-methylphenyl)-N-[2-(7-cyano-6-phenyl-4-thioxo(3-hydropyrrolo[3,2-d]pyrimidin-5-yl))ethyl]carboxamide]
< 0.01 µM	N#Cc1c(-c2ccccc2)n(CCC(=O)N2CCCCC2)c2c(=S)[nH]cnc12 [3-0152]
1 to 10 µM	N#Cc1c(-c2ccccc2)n(CCCOC(=O)c2ccco2)c2c(=O)[nH]cnc12 [2-0530]
1 to 10 µM	CC(C)CCn1c(-c2ccccc2)c(C#N)c2nc[nH]c(=S)c21 [1-0114]
1 to 10 µM	COCCn1c(-c2ccccc2)c(C#N)c2nc[nH]c(=S)c21 [1-0208]
1 to 10 µM	N#Cc1c(-c2ccccc2)n(CCn2c(=O)[nH]c3ccccc3c2=O)c2c(=S)[nH]cnc12 [2-1849, 5-[2-(2,4-dioxo(1,3-dihydroquinazolin-3-yl))ethyl]-6-phenyl-4-thioxo-3-hydropyrrolo[3,2-d]pyrimidine-7-carbonitrile]
1 to 10 µM	CCOC(=O)CCCn1c(-c2ccccc2)c(C#N)c2nc[nH]c(=O)c21 [4-0030]
0.03 to 0.1 µM	N#Cc1c(-c2ccccc2)n(CCC(=O)N2CCCC2)c2c(=S)[nH]cnc12 [3-0148]
1 to 10 µM	CCCCCn1c(-c2ccccc2)c(C#N)c2nc[nH]c(=O)c21 [1-0132]
0.01 to 0.03 µM	N#Cc1c(NC2CC2)n(CCNC(=O)c2ccccc2)c2c(=S)[nH]cnc12 [6-0413, N-{2-[7-cyano-6-(cyclopropylamino)-4-thioxo(3-hydropyrrolo[3,2-d]pyrimidin-5-yl)]ethyl}benzamide]
0.03 to 0.1 µM	CCNC(=O)CCn1c(-c2ccccc2)c(C#N)c2nc[nH]c(=S)c21 [3-1792]
1 to 10 µM	N#Cc1c(-c2ccccc2)n(CCN2C(=O)c3ccccc3C2=O)c2c(=S)[nH]cnc12 [1-0501, 5-[2-(1,3-dioxoisoindolin-2-yl)ethyl]-6-phenyl-4-thioxo-3-hydropyrrolo[3,2-d]pyrimidine-7-carbonitrile]
0.03 to 0.1 µM	N#Cc1c(-c2ccccc2)n(CCNC(=O)Nc2cccc(C(=O)O)c2)c2c(=S)[nH]cnc12 [2-1777, 3-({N-[2-(7-cyano-6-phenyl-4-thioxo-3-hydropyrrolo[3,2-d]pyrimidin-5-yl)ethyl]carbamoyl}amino)benzoic acid]
1 to 10 µM	COCCCn1c(-c2ccccc2)c(C#N)c2nc[nH]c(=O)c21 [1-0227]
1 to 10 µM	CCOC(=O)CCn1c(-c2ccccc2)c(C#N)c2nc[nH]c(=S)c21 [4-0005, ethyl 3-(7-cyano-6-phenyl-4-thioxo-3-hydropyrrolo[3,2-d]pyrimidin-5-yl)propanoate]
